Reference: ChEMBL document CHEMBL1151893, “Synthesis of analogs of forodesine HCl, a human purine nucleoside phosphorylase inhibitor-Part I” (Bioorg Med Chem Lett, 2009)

These compounds were tested against T1, Purine nucleoside phosphorylase (Homo sapiens, UniProt P00491) (assay: Inhibition of human purine nucleoside phosphorylase).
T1 sequence (P00491 whole entry): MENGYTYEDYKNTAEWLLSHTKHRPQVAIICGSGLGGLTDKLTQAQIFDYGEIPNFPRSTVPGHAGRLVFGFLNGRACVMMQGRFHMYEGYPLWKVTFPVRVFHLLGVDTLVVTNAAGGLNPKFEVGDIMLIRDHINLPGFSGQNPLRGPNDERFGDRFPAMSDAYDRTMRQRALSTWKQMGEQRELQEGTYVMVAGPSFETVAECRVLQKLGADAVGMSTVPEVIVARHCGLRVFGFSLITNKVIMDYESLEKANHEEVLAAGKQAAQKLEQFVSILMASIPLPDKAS

IC50, 0.1 µM:
O=c1[nH]cnc2cc([C@@H]3N[C@H](CO)[C@@H](O)[C@H]3O)[nH]c12
O=C(O)c1[nH]c2c(=O)[nH]cnc2c1[C@@H]1N[C@H](CO)[C@@H](O)[C@H]1O
O=c1[nH]cnc2c([C@@]3(CO)NC[C@H](O)[C@@H]3O)c[nH]c12
